Reference: the supplement of paper PMC11061612

Columns and labels:
Carboplatin = compound: C1CC(C1)(C(=O)[O-])C(=O)[O-].N.N.[Pt+2] [Carboplatin]; conditions: max 10 µM
Summary of the method: (§1)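 Cancer cell lines were dosed for 72 hours (final DMSO typically 0.2%) after 24 hours at 37°C and 5% CO2 in 1536-well plates containing 7.5 μl DMEM/F12 or RPMI with 10% FBS. Viability came from CellTiter-Glo 2.0 luminescence, scaled between blank-well and DMSO-well means, and dose responses were fitted to a two-parameter logistic curve with a non-linear mixed effects model. The single-agent IC50 was obtained from this fit.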

AZD5363 = compound: C1CN(CCC1(C(=O)N[C@@H](CCO)C2=CC=C(C=C2)Cl)N)C3=NC=NC4=C3C=CN4 [AZD5363]; conditions: max 10 µM
Summary of the method: as §1

AZD1775 = compound: C=CCn1c(=O)c2cnc(Nc3ccc(N4CCN(C)CC4)cc3)nc2n1-c1cccc(C(C)(C)O)n1 [AZD1775]; conditions: max 3 µM
Summary of the method: as §1

Trametinib = compound: CC(=O)Nc1cccc(-n2c(=O)n(C3CC3)c(=O)c3c(Nc4ccc(I)cc4F)n(C)c(=O)c(C)c32)c1 [Trametinib]; conditions: max 1 µM
Summary of the method: as §1

Paclitaxel = compound: CC(=O)O[C@H]1C(=O)[C@@]2(C)[C@H]([C@H](OC(=O)c3ccccc3)[C@]3(O)C[C@H](OC(=O)[C@H](O)[C@@H](NC(=O)c4ccccc4)c4ccccc4)C(C)=C1C3(C)C)[C@]1(OC(C)=O)CO[C@@H]1C[C@@H]2O [Paclitaxel]; conditions: max 3 µM
Summary of the method: as §1

Palbociclib = compound: CC(=O)c1c(C)c2cnc(Nc3ccc(N4CCNCC4)cn3)nc2n(C2CCCC2)c1=O [Palbociclib]; conditions: max 10 µM
Summary of the method: as §1

AZD1390 = compound: CC(C)n1c(=O)n(C)c2cnc3cc(F)c(-c4ccc(OCCCN5CCCCC5)nc4)cc3c21 [AZD1390]; conditions: max 0.3 µM
Summary of the method: as §1

Venetoclax = compound: CC1(C)CCC(CN2CCN(c3ccc(C(=O)NS(=O)(=O)c4ccc(NCC5CCOCC5)c([N+](=O)[O-])c4)c(Oc4cnc5[nH]ccc5c4)c3)CC2)=C(c2ccc(Cl)cc2)C1 [Venetoclax]; conditions: max 1 µM
Summary of the method: as §1

Dasatinib = compound: CC1=C(C(=CC=C1)Cl)NC(=O)C2=CN=C(S2)NC3=CC(=NC(=N3)C)N4CCN(CC4)CCO [Dasatinib]; conditions: max 2 µM
Summary of the method: as §1

SG3199 = compound: CC1=CN2[C@@H](C1)C=NC3=CC(=C(C=C3C2=O)OC)OCCCCCOC4=C(C=C5C(=C4)N=C[C@@H]6CC(=CN6C5=O)C)OC [SG3199]; conditions: max 0.001 µM
Summary of the method: as §1

AZD2811 = compound: CCN(CCO)CCCOc1ccc2c(Nc3cc(CC(=O)Nc4cccc(F)c4)[nH]n3)ncnc2c1 [AZD2811]; conditions: max 1 µM
Summary of the method: as §1

SN-38 = compound: CCc1c2c(nc3ccc(O)cc13)-c1cc3c(c(=O)n1C2)COC(=O)[C@]3(O)CC [SN-38]; conditions: max 0.3 µM
Summary of the method: as §1

AZD0156 = compound: CN(C)CCCOc1ccc(-c2ccc3ncc4c(c3c2)n(C2CCOCC2)c(=O)n4C)cn1 [AZD0156]; conditions: max 3 µM
Summary of the method: as §1

AZD4320 = compound: CN(CC[C@H](CSC1=CC=CC=C1)NC2=C(C=C(C=C2)S(=O)(=O)NC(=O)C3=CC=C(C=C3)N4CCC(CC4)[C@H](C5=CC=CC=C5C6=CC=C(C=C6)Cl)O)S(=O)(=O)C(F)(F)F)CCO [AZD4320]; conditions: max 1 µM
Summary of the method: as §1

Alisertib = compound: COc1cc(Nc2ncc3c(n2)-c2ccc(Cl)cc2C(c2c(F)cccc2OC)=NC3)ccc1C(=O)O [Alisertib]; conditions: max 10 µM
Summary of the method: as §1

Etoposide = compound: COc1cc([C@@H]2c3cc4c(cc3[C@@H](O[C@@H]3O[C@@H]5CO[C@@H](C)O[C@H]5[C@H](O)[C@H]3O)[C@H]3COC(=O)[C@H]23)OCO4)cc(OC)c1O [Etoposide]; conditions: max 10 µM
Summary of the method: as §1

Gefitinib = compound: COc1cc2ncnc(Nc3ccc(F)c(Cl)c3)c2cc1OCCCN1CCOCC1 [Gefitinib]; conditions: max 10 µM
Summary of the method: as §1

Prexasertib = compound: COc1cccc(OCCCN)c1-c1cc(Nc2cnc(C#N)cn2)n[nH]1 [Prexasertib]; conditions: max 1 µM
Summary of the method: as §1

Doxorubicin = compound: COc1cccc2c1C(=O)c1c(O)c3c(c(O)c1C2=O)C[C@@](O)(C(=O)CO)C[C@@H]3O[C@H]1C[C@H](N)[C@H](O)[C@H](C)O1 [Doxorubicin]; conditions: max 1 µM
Summary of the method: as §1

AZD5153 = compound: COc1nnc2ccc(N3CCC(c4ccc(OCCN5CCN(C)C(=O)[C@H]5C)cc4)CC3)nn12 [AZD5153]; conditions: max 1 µM
Summary of the method: as §1

Lapatinib = compound: CS(=O)(=O)CCNCc1ccc(-c2ccc3ncnc(Nc4ccc(OCc5cccc(F)c5)c(Cl)c4)c3c2)o1 [Lapatinib]; conditions: max 10 µM
Summary of the method: as §1

AZD8186 = compound: C[C@@H](Nc1cc(F)cc(F)c1)c1cc(C(=O)N(C)C)cc2c(=O)cc(N3CCOCC3)oc12 [AZD8186]; conditions: max 10 µM
Summary of the method: as §1

Crizotinib = compound: C[C@@H](Oc1cc(-c2cnn(C3CCNCC3)c2)cnc1N)c1c(Cl)ccc(F)c1Cl [Crizotinib]; conditions: max 10 µM
Summary of the method: as §1

Savolitinib = compound: C[C@@H](c1ccc2nccn2c1)n1nnc2ncc(-c3cnn(C)c3)nc21 [Savolitinib]; conditions: max 1 µM
Summary of the method: as §1

AZD6738 = compound: C[C@@H]1COCCN1C2=NC(=NC(=C2)C3(CC3)[S@](=N)(=O)C)C4=C5C=CNC5=NC=C4 [AZD6738]; conditions: max 10 µM
Summary of the method: as §1

AZD5991 = compound: Cc1c2c(nn1C)CSCc1cc(n(C)n1)CSc1cc(c3ccccc3c1)OCCCc1c(C(=O)O)n(C)c3c-2c(Cl)ccc13 [AZD5991]; conditions: max 1 µM
Summary of the method: as §1

AZD7648 = compound: Cc1cc2ncnn2cc1Nc1ncc2c(n1)n(C1CCOCC1)c(=O)n2C [AZD7648]; conditions: max 10 µM
Summary of the method: as §1

Taselisib = compound: Cc1nc(-c2cn3c(n2)-c2ccc(-c4cnn(C(C)(C)C(N)=O)c4)cc2OCC3)n(C(C)C)n1 [Taselisib]; conditions: max 10 µM
Summary of the method: as §1

Selumetinib = compound: Cn1cnc2c(F)c(Nc3ccc(Br)cc3Cl)c(C(=O)NOCCO)cc21 [Selumetinib]; conditions: max 10 µM
Summary of the method: as §1

SRA737 = compound: N#Cc1cnc(Nc2cc(NC[C@H]3CNCCO3)c(C(F)(F)F)cn2)cn1 [SRA737]; conditions: max 10 µM
Summary of the method: as §1

MK-2206 = compound: NC1(c2ccc(-c3nc4ccn5c(=O)[nH]nc5c4cc3-c3ccccc3)cc2)CCC1 [MK-2206]; conditions: max 10 µM
Summary of the method: as §1

Gemcitabine = compound: Nc1ccn([C@@H]2O[C@H](CO)[C@@H](O)C2(F)F)c(=O)n1 [Gemcitabine]; conditions: max 0.3 µM
Summary of the method: as §1

[1] = compound: O=C(Nc1ccc2[nH]nc(-c3ccncc3)c2c1)[C@@H]1CCN(CC(=O)N2CCN(c3ccc(-c4ncccn4)cc3)CC2)C1; conditions: max 5 µM
Summary of the method: as §1

Olaparib = compound: O=C(c1cc(Cc2n[nH]c(=O)c3ccccc23)ccc1F)N1CCN(C(=O)C2CC2)CC1 [Olaparib]; conditions: max 10 µM
Summary of the method: as §1

5-Fluorouracil = compound: O=c1[nH]cc(F)c(=O)[nH]1 [5-Fluorouracil]; conditions: max 20 µM
Summary of the method: as §1

| Cell Line | IC50, cell viability 72 h (Carboplatin) | IC50, cell viability 72 h (AZD5363) | IC50, cell viability 72 h (AZD1775) | IC50, cell viability 72 h (Trametinib) | IC50, cell viability 72 h (Paclitaxel) | IC50, cell viability 72 h (Palbociclib) | IC50, cell viability 72 h (AZD1390) | IC50, cell viability 72 h (Venetoclax) | IC50, cell viability 72 h (Dasatinib) | IC50, cell viability 72 h (SG3199) | IC50, cell viability 72 h (AZD2811) | IC50, cell viability 72 h (SN-38) | IC50, cell viability 72 h (AZD0156) | IC50, cell viability 72 h (AZD4320) | IC50, cell viability 72 h (Alisertib) | IC50, cell viability 72 h (Etoposide) | IC50, cell viability 72 h (Gefitinib) | IC50, cell viability 72 h (Prexasertib) | IC50, cell viability 72 h (Doxorubicin) | IC50, cell viability 72 h (AZD5153) | IC50, cell viability 72 h (Lapatinib) | IC50, cell viability 72 h (AZD8186) | IC50, cell viability 72 h (Crizotinib) | IC50, cell viability 72 h (Savolitinib) | IC50, cell viability 72 h (AZD6738) | IC50, cell viability 72 h (AZD5991) | IC50, cell viability 72 h (AZD7648) | IC50, cell viability 72 h (Taselisib) | IC50, cell viability 72 h (Selumetinib) | IC50, cell viability 72 h (SRA737) | IC50, cell viability 72 h (MK-2206) | IC50, cell viability 72 h (Gemcitabine) | IC50, cell viability 72 h [1] | IC50, cell viability 72 h (Olaparib) | IC50, cell viability 72 h (5-Fluorouracil) |
| --- | --- | --- | --- | --- | --- | --- | --- | --- | --- | --- | --- | --- | --- | --- | --- | --- | --- | --- | --- | --- | --- | --- | --- | --- | --- | --- | --- | --- | --- | --- | --- | --- | --- | --- | --- |
| PANC-10-05 (Pancreatic Carcinoma) | > 10000 nM | > 10000 nM | 1270 nM | 438 nM | 378 nM | > 10000 nM | > 300 nM | > 1000 nM | 1510 nM | > 1 nM | > 1000 nM | 59.5 nM | > 3000 nM | > 1000 nM | > 10000 nM | > 10000 nM | > 10000 nM | > 1000 nM | > 1000 nM | 732 nM | > 10000 nM | > 10000 nM | > 10000 nM | > 1000 nM | > 10000 nM | > 1000 nM | > 10000 nM | 7170 nM | > 10000 nM | > 10000 nM | > 10000 nM | > 300 nM | 3330 nM | > 10000 nM | > 20000 nM |
| TT (Thyroid Gland Carcinoma) | > 10000 nM | > 10000 nM | > 3000 nM | > 1000 nM | > 3000 nM | > 10000 nM | > 300 nM | > 1000 nM | > 2000 nM | > 1 nM | > 1000 nM | 68.8 nM | > 3000 nM | > 1000 nM | > 10000 nM | > 10000 nM | > 10000 nM | 249 nM | > 1000 nM | 808 nM | > 10000 nM | > 10000 nM | > 10000 nM | > 1000 nM | > 10000 nM | > 1000 nM | > 10000 nM | > 10000 nM | > 10000 nM | > 10000 nM | > 10000 nM | > 300 nM | > 5000 nM | > 10000 nM | > 20000 nM |
| U-2-OS (Osteosarcoma) | > 10000 nM | > 10000 nM | 1080 nM | 140 nM | 162 nM | > 10000 nM | > 300 nM | > 1000 nM | > 2000 nM | > 1 nM | > 1000 nM | > 300 nM | > 3000 nM | > 1000 nM | > 10000 nM | > 10000 nM | > 10000 nM | 17.4 nM | > 1000 nM | > 1000 nM | > 10000 nM | > 10000 nM | > 10000 nM | > 1000 nM | > 10000 nM | > 1000 nM | > 10000 nM | > 10000 nM | > 10000 nM | 5430 nM | > 10000 nM | > 300 nM | 2130 nM | > 10000 nM | > 20000 nM |
| VCaP (Prostate Carcinoma) | > 10000 nM | 7960 nM | 1450 nM | > 1000 nM | 22.4 nM | > 10000 nM | > 300 nM | > 1000 nM | > 2000 nM | > 1 nM | > 1000 nM | 205 nM | > 3000 nM | > 1000 nM | > 10000 nM | 9350 nM | > 10000 nM | 85.4 nM | > 1000 nM | 122 nM | > 10000 nM | > 10000 nM | > 10000 nM | > 1000 nM | > 10000 nM | 316 nM | > 10000 nM | 3150 nM | > 10000 nM | > 10000 nM | 9700 nM | 65 nM | > 5000 nM | > 10000 nM | > 20000 nM |
